Data reported in ChEMBL document CHEMBL3243973, “Synthesis and antitussive activity of aminotetra- (and -hexa-) hydrodibenzofurans” (J Med Chem, 1977).

These molecules were tested on Cavia porcellus (assay: Antitussive activity in Dunkin-Hartley guinea pig assessed as inhibition of electrically-stimulated vagus nerve-induced cough at 100 mg/kg, po administered compound prior to electrical stimulation of vagus nerve measured at 20 to 40 mins relative to control). Settings: not given.
Assay type: functional

Row | SMILES | inhibition in vivo at 100 mg/kg [%]
1 | Cc1ccc2c(c1)[C@]1(C)CC/C(=N\O)[C@H](NC(=O)CCN3CCN(C)CC3)[C@@H]1O2 | 55
2 | Cc1ccc2c(c1)[C@]1(C)CCC(=O)[C@H](NC(=O)CN3CCCC3)[C@@H]1O2 | 17
3 | Cc1ccc2c(c1)[C@]1(C)CCC3(OCCO3)[C@H](NC(=O)CCN3CCN(C)CC3)[C@@H]1O2 | 11
4 | Cc1ccc2c(c1)[C@]1(C)CCC(=O)[C@H](NC(=O)CCN(C)C)[C@@H]1O2 | 79
5 | Cc1cc([N+](=O)[O-])c2c(c1)[C@]1(C)CCC(=O)[C@H](NC(=O)CCN3CCN(C)CC3)[C@@H]1O2 | > 80
6 | Cc1ccc2c(c1)[C@]1(C)CCC(O)[C@H](NCCCN3CCN(C)CC3)[C@@H]1O2 (stereo partly drawn) | 62
7 | CC(=O)c1cc(C)cc2c1O[C@H]1[C@@H](NC(=O)CCN3CCN(C)CC3)C(=O)CC[C@@]21C | 42
8 | CC(=O)N[C@H]1C(=O)CC[C@@]2(C)c3cc(C)ccc3O[C@@H]12 | 25
9 | Cc1ccc2c(c1)[C@]1(C)C=C(NC(=O)CCN(C)C)C(=O)C[C@@H]1O2 | 58
10 | CCN(CC(=O)N[C@H]1C(=O)CC[C@@]2(C)c3cc(C)ccc3O[C@@H]12)Cc1ccccc1 | 9
11 | Cc1ccc2c(c1)[C@]1(C)CCC(=O)[C@H](NC(=O)CCN3CCN(C)CC3)[C@@H]1O2.Cl | > 80
12 | Cc1ccc2c(c1)[C@]1(C)CCC(=O)[C@H](NC(=O)CCN3CCN(Cc4ccccc4)CC3)[C@@H]1O2 | 33
13 | CCOC(=O)N1CCN(CCC(=O)N[C@H]2C(=O)CC[C@@]3(C)c4cc(C)ccc4O[C@@H]23)CC1 | 33
14 | Cc1ccc2c(c1)[C@]1(C)CCC(=O)[C@H](NC(=O)CN3CCN(C)CC3)[C@@H]1O2 | 43
15 | Cc1ccc2c(c1)[C@]1(C)C=C(NC(=O)CCN3CCN(C)CC3)C(=O)C[C@@H]1O2 | 25
16 | Cc1ccc2c(c1)[C@]1(C)CCC(=O)[C@H](NC(=O)CCCN3CCN(C)CC3)[C@@H]1O2 | 72
17 | Cc1ccc2c(c1)[C@]1(C)CCC(=O)[C@H](NC(=O)CCN3CCOCC3)[C@@H]1O2 | 39
18 | Cc1ccc2c(c1)[C@]1(C)CCC(=O)[C@H](NC(=O)CCCCCN(C)C)[C@@H]1O2 | 25
19 | Cc1ccc2c(c1)[C@]1(C)CCC(O)=C(C(=O)NCCN3CCN(C)CC3)[C@@H]1O2 | 61
20 | Cc1ccc2c(c1)[C@]1(C)C=C(NC(=O)CN(C)C)C(=O)C[C@@H]1O2 | 33
21 | Cc1ccc2c(c1)[C@]1(C)CCC(=O)[C@H](NC(=O)CCN3CCCCC3)[C@@H]1O2 | 46
22 | Cc1ccc2c(c1)[C@]1(C)CCC(=O)[C@H](NC(=O)CCN3CCCC3)[C@@H]1O2 | 44
23 | Cc1ccc2c(c1)[C@]1(C)CCC(O)[C@H](NC(=O)CCN3CCN(C)CC3)[C@@H]1O2 (stereo partly drawn) | 12

Row | SMILES | inhibition in vivo at 100 mg/kg [%]
24 | Cc1ccc2c(c1)[C@]1(C)C=C(NC(=O)CN3CCOCC3)C(O)C[C@@H]1O2 (stereo partly drawn) | 29
25 | CCN(CC)CCC(=O)N[C@H]1C(=O)CC[C@@]2(C)c3cc(C)ccc3O[C@@H]12 | 33
26 | Cc1ccc2c(c1)[C@]1(C)CCC(=O)[C@H](NC(=O)CCN3CCN(c4ccccc4)CC3)[C@@H]1O2 | 54
27 | Cc1ccc2c(c1)[C@]1(C)C=C(NC(=O)CN3CCOCC3)C(=O)C[C@@H]1O2 | 31
28 | CC(=O)c1cc(C)cc(C2(C)C=C(NC(=O)CCN3CCN(C)CC3)C(=O)CC2)c1O (stereo not drawn) | 22
29 | Cc1ccc2c(c1)[C@]1(C)CCC(=O)[C@H](N)[C@@H]1O2 | 33
30 | Cc1ccc2c(c1)[C@]1(C)CCC(=O)[C@H](NC(=O)CCCCN(C)C)[C@@H]1O2.Cl | > 80
31 | Cc1ccc2c(c1)[C@]1(C)CCC(=O)[C@H](NC(=O)OCCN3CCN(C)CC3)[C@@H]1O2 | 33
32 | Cc1ccc2c(c1)[C@]1(C)C=C(NC(=O)CN3CCCCC3)C(=O)C[C@@H]1O2 | 17
33 | CCN1CCN(CCC(=O)N[C@H]2C(=O)CC[C@@]3(C)c4cc(C)ccc4O[C@@H]23)CC1 | 8
34 | Cc1ccc2c(c1)[C@]1(C)CCC(=O)[C@H](NC(=O)CCCN(C)C)[C@@H]1O2 | 67
35 | Cc1ccc2c(c1)[C@]1(C)CCC(=O)[C@H](NC(=O)CCN3CCNCC3)[C@@H]1O2 | 75
36 | Cc1ccc2c(c1)[C@]1(C)CCC(=O)[C@H](NC(=O)CCN3CCN(CCO)CC3)[C@@H]1O2 | 17
37 | Cc1ccc2c(c1)[C@]1(C)CC(NC(=O)CCN3CCN(C)CC3)C(=O)C[C@@H]1O2 (stereo partly drawn) | 12.5
38 | Cc1ccc2c(c1)[C@]1(C)CCC3(SCCS3)[C@H](NC(=O)CCN3CCN(C)CC3)[C@@H]1O2 | 46
39 | Cc1ccc2c(c1)[C@]1(C)CC/C(=N\NC(N)=O)[C@H](NC(=O)CCN3CCN(C)CC3)[C@@H]1O2 | 25
40 | Cc1ccc2c(c1)[C@]1(C)C=C(NC(=O)Cn3cccc3)C(=O)C[C@@H]1O2 | 42
41 | CC(=O)N1CCN(CCC(=O)N[C@H]2C(=O)CC[C@@]3(C)c4cc(C)ccc4O[C@@H]23)CC1 | 33
42 | COc1ccc2c3c1O[C@H]1[C@@H](O)C=C[C@H]4[C@@H](C2)N(C)CC[C@@]341 [CODEINE] | > 80
43 | Cc1ccc2c(c1)[C@]1(C)CCC[C@H](NC(=O)CCN3CCN(C)CC3)[C@@H]1O2 | 46
44 | Cc1ccc2c(c1)[C@]1(C)C=C(C(=O)NCCN3CCN(C)CC3)C(=O)C[C@@H]1O2 | 62.5
45 | Cc1ccc2c(c1)[C@]1(C)CCC(=O)[C@H](NC(=O)CCOCCN(C)C)[C@@H]1O2 | 37
46 | Cc1ccc2c(c1)[C@]1(C)CCC(=O)[C@H](NC(=O)CCN(C)CCN(C)C)[C@@H]1O2 | 50

The molecules below were run on Cavia porcellus (assay: Antitussive activity in po dosed Dunkin-Hartley guinea pig assessed as inhibition of electrically-stimulated vagus nerve-induced cough administered compound prior to electrical stimulation of vagus nerve measured at 20 to 40 mins). Settings: not given.
Assay type: functional

Row | SMILES | ED50 [mg/kg]
47 | Cc1cc([N+](=O)[O-])c2c(c1)[C@]1(C)CCC(=O)[C@H](NC(=O)CCN3CCN(C)CC3)[C@@H]1O2 | 34
48 | Cc1ccc2c(c1)[C@]1(C)CCC(=O)[C@H](NC(=O)CCN3CCN(C)CC3)[C@@H]1O2.Cl | 32.5
49 | Cc1ccc2c(c1)[C@]1(C)CCC(=O)[C@H](NC(=O)CCCCN(C)C)[C@@H]1O2.Cl | 71
50 | COc1ccc2c3c1O[C@H]1[C@@H](O)C=C[C@H]4[C@@H](C2)N(C)CC[C@@]341 [CODEINE] | 38.5

What follows are molecules tested on Cavia porcellus (assay: Toxicity in Dunkin-Hartley guinea pig assessed as effect on central nervous system at 100 mg/kg, po). Settings: in vivo.
Assay type: organism-based
Design: dose 100 mg/kg, route oral

Row | SMILES | Activity
51 | Cc1ccc2c(c1)[C@]1(C)CCC(=O)[C@H](NC(=O)CCN3CCN(C)CC3)[C@@H]1O2.Cl | Non-toxic

What follows are molecules tested on Cavia porcellus (assay: Toxicity in Dunkin-Hartley guinea pig assessed as effect on cardiovascular system at 100 mg/kg, po). Settings: in vivo.
Assay type: organism-based
Design: dose 100 mg/kg, route oral

Row | SMILES | Activity
52 | Cc1ccc2c(c1)[C@]1(C)CCC(=O)[C@H](NC(=O)CCN3CCN(C)CC3)[C@@H]1O2.Cl | Non-toxic

Each molecule was assayed on Cavia porcellus (assay: Toxicity in Dunkin-Hartley guinea pig assessed as gastrointestinal effect at 100 mg/kg, po). Settings: in vivo.
Assay type: organism-based
Design: dose 100 mg/kg, route oral

Row | SMILES | Activity
53 | Cc1ccc2c(c1)[C@]1(C)CCC(=O)[C@H](NC(=O)CCN3CCN(C)CC3)[C@@H]1O2.Cl | Non-toxic
